Data as given in PMC12430544 (Molecules, 2025).
Values joined by “and” are separate entries in the source; they are usually repeats but may differ in a detail not shown here. Identical values can stand only once.

How the values were obtained:
[1] = biological target: T1, acetylcholinesterase (AChE, from an electric eel) (Electrophorus electricus, UniProt O42275); experiment: biochemical; conditions: for IC50: electric eel AChE, Ellman's method, pH 7.4, means ± SEM of at least three experiments, read-out: IC50 AChE Inhibition; for Selectivity Index = IC50 (AChE)/IC50 (BuChE): ratio of eeAChE and equine BuChE IC50
T1 construct: purchased Sigma-Aldrich
T1 sequence (O42275 24-633): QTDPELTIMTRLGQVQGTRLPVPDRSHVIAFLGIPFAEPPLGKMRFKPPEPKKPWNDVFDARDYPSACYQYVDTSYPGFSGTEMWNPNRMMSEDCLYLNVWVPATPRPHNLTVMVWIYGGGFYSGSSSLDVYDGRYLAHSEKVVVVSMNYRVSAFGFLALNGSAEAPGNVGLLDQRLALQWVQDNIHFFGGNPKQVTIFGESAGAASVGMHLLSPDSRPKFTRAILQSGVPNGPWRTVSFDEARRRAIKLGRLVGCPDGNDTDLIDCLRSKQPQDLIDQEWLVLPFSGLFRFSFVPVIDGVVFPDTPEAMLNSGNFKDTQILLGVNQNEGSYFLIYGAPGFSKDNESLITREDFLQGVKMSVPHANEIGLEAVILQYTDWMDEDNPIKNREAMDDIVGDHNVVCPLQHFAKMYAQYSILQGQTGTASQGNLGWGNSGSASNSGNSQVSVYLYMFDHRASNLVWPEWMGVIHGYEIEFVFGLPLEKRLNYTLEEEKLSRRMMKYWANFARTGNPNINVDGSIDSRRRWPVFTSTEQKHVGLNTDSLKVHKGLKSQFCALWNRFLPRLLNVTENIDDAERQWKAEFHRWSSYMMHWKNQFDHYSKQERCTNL
Procedure: (§1) Cholinesterase (ChE) inhibitory activity was evaluated using a modified Ellman’s spectrophotometric method. Acetylcholinesterase (AChE, from electric eel), butyrylcholinesterase (BuChE, from equine serum), 5,5′-dithiobis-(2-nitrobenzoic acid) (Ellman’s reagent, DTNB), S-butyrylthiocholine iodide (BTCI), acetylthiocholine iodide (ATCI), and tarcine hydrochloride were purchased from Sigma-Aldrich. Tarcine hydrochloride was used as a reference standard. All the assays were carried out in 0.1 M KH2PO4/K2HPO4 buffer (pH = 7.4). Stock solutions of tested compounds (10 mM) were prepared in DMSO (below 0.5%, v/v) and diluted in phosphate buffer. The assay was performed in 96-well plate by adding 25 μL of 1 mM acetylthiocholine iodide or butyrylthiocholine iodide used as substrate in the assay, 125 μL of 1 mM 5,5′-dithiobis-(2-nitrobenzoic acid) (DTNB), 25 μL of 0.1 M phosphate buffer (pH = 7.4), 25 μL of testing substance in various concentrations, and 50 μL of 0.2 Units/mL AChE from an electric eel or BuChE from equine serum, respectively. At least five concentrations of the test compounds were assayed. […] The enzyme activity and the percentage inhibition were determined.

[2] = biological target: T2, butyrylcholinesterase (BuChE, from horse serum) (Equus caballus, UniProt P81908); experiment: biochemical; conditions: equine serum BuChE, Ellman's method, pH 7.4; means ± SEM of at least three experiments; read-out: IC50 BuChE Inhibition
T2 construct: purchased Sigma-Aldrich
T2 sequence (P81908 whole entry): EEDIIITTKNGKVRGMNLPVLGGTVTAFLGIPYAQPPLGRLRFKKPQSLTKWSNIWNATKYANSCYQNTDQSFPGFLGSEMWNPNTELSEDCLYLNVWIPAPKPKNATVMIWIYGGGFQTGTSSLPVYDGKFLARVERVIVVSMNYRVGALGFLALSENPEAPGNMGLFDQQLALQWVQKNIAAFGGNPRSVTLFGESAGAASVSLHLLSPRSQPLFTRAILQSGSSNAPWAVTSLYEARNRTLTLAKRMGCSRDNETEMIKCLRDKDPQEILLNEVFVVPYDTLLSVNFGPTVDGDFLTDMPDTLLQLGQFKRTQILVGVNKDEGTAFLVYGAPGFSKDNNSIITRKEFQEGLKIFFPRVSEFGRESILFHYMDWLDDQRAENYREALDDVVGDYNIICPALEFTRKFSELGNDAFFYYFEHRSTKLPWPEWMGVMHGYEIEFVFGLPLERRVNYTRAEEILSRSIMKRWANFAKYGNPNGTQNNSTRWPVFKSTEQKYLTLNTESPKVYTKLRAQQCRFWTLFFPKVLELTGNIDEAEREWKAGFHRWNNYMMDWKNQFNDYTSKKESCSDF
Procedure: as §1

[3] = Metal chelation by UV–vis spectrometry, stoichiometry and affinity estimate (Zn); format: physicochemical; conditions: for LogK Zn (affinity of ligand for Zn^II, ML2): 2L+M⇔ML2; for Maximum absorption of compound–Zn^II complex: bathochromic shift from 246 nm of the free compound
Excerpt: (§2) Given the 8-hydroxy(amino)quinoline moiety with the properties to bind metal ions, the abilities of all the compounds in binding metal ions (Cu^II, Fe^III, Zn^II) were studied by UV–vis spectrometry. At first three compounds were chose to test the binding abilities. Upon the addition of CuCl2 or ZnSO4 the maximum absorption suffered a bathochromic shift, pointing out the formation of complex compound–Cu^II. […] […].
(§3) To determine the stoichiometry of the complex compound–Cu^II, the technique of continuous variations (also called Job’s method) was used by preparing solutions of compounds 15a, 17b and CuSO4 so that the sum of concentrations of both species was constant at […] in all samples, but the proportions of both components varied between 0 and 100%. The UV spectra were recorded and the absorbance change at the maximum absorption wavelength of the compound-Cu^II complex, meaning the 15a-Cu^II complex at 264 nm and the 17b-Cu^II at 265 nm, respectively. The absorbance change was plotted versus the mole fraction of the compound, giving two straight lines whose equations were calculated. […] […].
(§4) Since all the ligands studied L from ML2 species and in accordance with the Beer–Lambert law, complexation reactions can be summarized as 2L+M⇔ML2 with K = 1−α/4C^2α^3 , and α can be calculated from the data of the absorption.
(§5) Metal-chelating properties were evaluated by UV–vis spectrometry. To screen the ability of chelating metal ions, the same concentrations of compound and metal ion were mixed in CH3OH/H2O (v/v = 9/1), and the UV–vis spectrum was tested; compared to the compound, the maximum absorption that suffered a bathochromic shift would point out the formation of a complex compound–metal ion. The stoichiometry of the complex compound–metal ion was determined by Job’s method. The affinity of compounds 15–17 as ligands (excepted 15f, 16d, 16g, 16k) for Cu^II or Zn^II were estimated in the CH3OH/H2O solution (v/v = 9/1). Since all the ligands studied L from ML2 species and in accordance with the Beer–Lambert law, complexation reactions can be summarized as 2L+M⇔ML2 with K = 1−α/4C^2α^3 , and α = A/Amax; A was the data of absorption tested when the compound–metal ion = 2/1 under the maximum absorption wavelength of the complex, Amax was the absorption when the compound completely formed a complex with the metal ion; the data can be obtained as an approximation when the metal ion is in excess, and the absorption changes little as the concentration of metal ion still increases.

[4] = Metal chelation by UV–vis spectrometry, Job's method and affinity estimate (Cu); format: physicochemical; conditions: for LogK Cu (affinity of ligand for Cu^II, ML2): 2L+M⇔ML2; for Mole fraction of compound at the intersection of the Job plot (Cu^II): Job's method, CuSO4, sum of concentrations 20 μm; for Maximum absorption of compound–Cu^II complex: bathochromic shift from 246 nm of the free compound
Excerpt: as §2, §3, §4, §5

[5] = Metal chelation by UV–vis spectrometry (Fe); format: physicochemical
Procedure: as §2, §5

Aβ1–42 = biological target: T3, Aβ1–42 (Homo sapiens, UniProt P05067); experiment: Inhibition of self-induced Aβ1–42 aggregation (ThT fluorescence); format: biochemical; conditions: 20 μM compound, thioflavin-T fluorescence, mean ± SD of at least three independent experiments; read-out: Aβ Aggregation Inhibition (%), self-induced Aβ1–42
T3 construct: aggregation of Aβ1–42 synthetic peptide into fibrils
T3 sequence (P05067 672-713): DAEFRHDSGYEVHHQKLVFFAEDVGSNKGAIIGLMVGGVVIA
Procedure: Self-induced Aβ1–42 aggregation of all the compounds we obtained was also evaluated. […] ThT is a histochemical dye that is known to bind to the peptide β-sheet conformation, which is the predominant secondary structure of amyloid-beta fibrils. […] The inhibition studies were carried out upon incubating Aβ1–42 with and without the compounds.
Aβ1–42 was dissolved in 100% 1,1,1,3,3,3-[…] (HFIP) to a concentration of 1 mg/mL, sonicated in a water bath overnight, aliquoted into microcentrifuge tubes, dried under vacuum, and stored at −20 °C. Immediately prior to use, the HFIP-treated Aβ1–42 was dissolved in dimethylsulfoxide (DMSO) as the stored solution. […] Amounts of 5 μL of compound (200 μM) and 5 μL of 200 μM Aβ1–42 were added into 40 μL of phosphate-buffered saline (PBS at pH 7.4). After incubation at room temperature on a thermostatic shaker for 72 h, 100 μL of 5 μM ThT solution (in PBS at pH 7.4) was added to the reaction solution. […] The Aβ1–42 aggregation inhibition percentage was calculated using the following formula: inhibition percentage = (F1 − F2)/(F1 − F0) × 100%.

[6] = biological target: T4, electric eel AChE (eeAChE) (Electrophorus electricus, UniProt O42275); experiment: Kinetic study of AChE inhibition (Lineweaver–Burk plots); format: biochemical; conditions: 16e at 10, 50 and 100 nM, Lineweaver–Burk plot
T4 construct: purchased Sigma-Aldrich
T4 sequence (O42275 24-633): as the sequence (O42275 24-633) above
Procedure: To elucidate the mechanism of AChE’s inhibition by the synthesized hybrids, a detailed enzyme kinetic study was conducted using electric eel AChE (eeAChE).
The slope (Km/Vmax) reflects the apparent enzyme–substrate affinity, whereas the y-intercept (1/Vmax) corresponds to the maximum reaction velocity.
The assay medium contained 25 μL of PBS (pH 7.4), 50 μL of enzyme, 25 μL of compound solution, and 125 μL of 1.0 mM DTNB; the reaction was started by addition of 25 μL of different concentrations of ATC.
The slope (Km/Vmax) reflects the enzyme’s affinity for the substrate in the presence of the inhibitor, while the y-intercept (1/Vmax) indicates the maximum velocity of the reaction.

[7] = design: method as in PMID 17382398; conditions: data from the literature ref 50; cited from earlier work
[8] = design: method as in PMID 17382398; conditions: data from the literature ref 50; cited from earlier work; remark: listed apart in the source

SMILES	IC50 [1] [nM]	Selectivity Index = IC50 (AChE)/IC50 (BuChE) [1]	IC50 [2] [nM]	LogK Zn (affinity of ligand for Zn^II, ML2) ([3]; CH3OH/H2O (v/v = 9/1))	Maximum absorption of compound–Zn^II complex [3]	LogK Cu (affinity of ligand for Cu^II, ML2) ([4]; CH3OH/H2O (v/v = 9/1), UV–vis)	Mole fraction of compound at the intersection of the Job plot (Cu^II) [4]	Maximum absorption of compound–Cu^II complex ([4]; UV–vis) [nm]	Complex formation with Fe^III (UV–vis shift) [5]	inhibition at 20 µM (Aβ1–42) [%]	Type of AChE inhibition [6]	Complex formation with Zn^II (UV–vis shift / binding) ([3]; CH3OH/H2O (v/v = 9/1))	Complex formation with Cu^II (UV–vis shift / binding) ([4]; UV–vis, CH3OH/H2O (v/v = 9/1))	LogK Cu, value in parentheses [7]	LogK Zn, value in parentheses [8]
O=C(CN1CCN(Cc2ccc3cccc(O)c3n2)CC1)Nc1c2c(nc3ccccc13)CCCC2 [Compound 15a, 2-(4-((8-Hydroxyquinolin-2-yl)methyl)piperazin-1-yl)-N-(1,2,3,4-tetrahydroacridin-9-yl)acetamide]	2020 ± 120	0.26	7740 ± 890	9.91	266 nm and 262 nm	10.14	around 0.7	264	no reliable shift	46.8 ± 4.1	–	–	–	–	–
Oc1cccc2ccc(CN3CCN(CCCNc4c5c(nc6ccccc46)CCCC5)CC3)nc12 [Compound 16e, 2-((4-(3-((1,2,3,4-Tetrahydroacridin-9-yl)amino)propyl)piperazin-1-yl)methyl)quinolin-8-ol]	100 ± 3.2	2.33	43 ± 5	9.63	–	9.46	–	–	–	80.5 ± 4.4	mixed-type inhibition	–	–	–	–
Nc1cccc2ccc(CN3CCN(CCCNc4c5c(nc6ccccc46)CCCC5)CC3)nc12 [Compound 16g, N-(3-(4-((8-aminoquinolin-2-yl)methyl)piperazin-1-yl)propyl)-1,2,3,4-tetrahydroacridin-9-amine]	52 ± 1	2.89	18 ± 3	–	–	–	–	–	no reliable shift	94.6 ± 4.2	–	no reliable shift	no reliable shift	–	–
Oc1cccc2ccc(CN3CCN(CCCCCNc4c5c(nc6ccccc46)CCCC5)CC3)nc12 [Compound 16h, 2-((4-(5-((1,2,3,4-Tetrahydroacridin-9-yl)amino)pentyl)piperazin-1-yl)methyl)quinolin-8-ol]	210 ± 3	2.10	100 ± 10	9.63	–	9.87	–	–	–	93.2 ± 3.9	–	–	–	–	–
Oc1ccc(F)c2ccc(CN3CCN(CCCCCNc4c5c(nc6ccccc46)CCCC5)CC3)nc12 [Compound 16i, 5-Fluoro-2-((4-(5-((1,2,3,4-tetrahydroacridin-9-yl)amino)pentyl)piperazin-1-yl)methyl)quinolin-8-ol]	400 ± 6	3.33	120 ± 20	9.49	–	9.49	–	–	–	55.6 ± 5.3	–	–	–	–	–
Oc1ccc(Cl)c2ccc(CN3CCN(CCCCCNc4c5c(nc6ccccc46)CCCC5)CC3)nc12 [Compound 16j, 5-Chloro-2-((4-(5-((1,2,3,4-tetrahydroacridin-9-yl)amino)pentyl)piperazin-1-yl)methyl)quinolin-8-ol]	130 ± 20	2.89	45 ± 11	9.65	–	9.96	–	–	–	74.8 ± 4.7	–	–	–	–	–
O=C(CN1CCN(Cc2ccc(O)c3ncccc23)CC1)Nc1c2c(nc3ccccc13)CCCC2 [Compound 17a, 2-(4-((8-Hydroxyquinolin-5-yl)methyl)piperazin-1-yl)-N-(1,2,3,4-tetrahydroacridin-9-yl)acetamide]	4460 ± 330	1.08	4130 ± 100	9.67	–	9.50	–	–	–	24.6 ± 3.7	–	–	–	–	–
Cc1ccc2c(CN3CCN(CC(=O)Nc4c5c(nc6ccccc46)CCCC5)CC3)ccc(O)c2n1 [Compound 17b, 2-(4-((8-Hydroxy-2-methylquinolin-5-yl)methyl)piperazin-1-yl)-N-(1,2,3,4-tetrahydroacridin-9-yl)acetamide]	2530 ± 200	0.58	4390 ± 270	9.71	262 nm	9.42	around 0.7	265	no reliable shift	23.3 ± 3.2	–	–	–	–	–
Oc1c(I)cc(Cl)c2cccnc12 [clioquinol, reference compound]	–	–	–	8.38	–	9.86	–	–	–	–	–	–	–	10.08	8.84
